Earlier results, collected in US20150297607A1, “Tricyclic Lactams for Use in the Protection of Normal Cells During Chemotherapy” (G1 Therapeutics, Inc., priority 2014, published 2015).

Conditions: clinical trial; Grade 3/4 neutropenia and leukopenia

CC(=O)c1c(C)c2cnc(Nc3ccc(N4CCNCC4)cn3)nc2n(C2CCCC2)c1=O [PD0332991, 6-acetyl-8-cyclopentyl-5-methyl-2-(5-piperazin-1-yl-pyridin-2-ylammino)-8H-pyrido-[2,3-d]-pyrimidin-7-one]
patients requiring a dose interruption: 71%
patients requiring a dose reduction: 35%
